Assay results reported in ChEMBL document CHEMBL1128761, “Benzothiazolylthio carbapenems: potent anti-MRSA agents” (Bioorg Med Chem Lett, 1995).
pIC50: −log10 of the molar value. In brackets after ≈: the same amount, converted by molar mass.

What was measured:
Enterococcus [1] = test: Inhibitory activity against enterococcus evaluated by computational method; type: functional
Bacteria [2] = test: The gram-negative activity is derived from eleven strains selected from seven enteric genera; type: functional; settings: Bacteria; read-out: MIC
MecA = molecular target: T1, MecA (Staphylococcus aureus, UniProt Q7DHH4); test: Binding affinity towards Penicillin-binding protein 2a from homogeneous MRSA COL strain using [3H]-radioligand
T1 sequence (Q7DHH4 whole entry): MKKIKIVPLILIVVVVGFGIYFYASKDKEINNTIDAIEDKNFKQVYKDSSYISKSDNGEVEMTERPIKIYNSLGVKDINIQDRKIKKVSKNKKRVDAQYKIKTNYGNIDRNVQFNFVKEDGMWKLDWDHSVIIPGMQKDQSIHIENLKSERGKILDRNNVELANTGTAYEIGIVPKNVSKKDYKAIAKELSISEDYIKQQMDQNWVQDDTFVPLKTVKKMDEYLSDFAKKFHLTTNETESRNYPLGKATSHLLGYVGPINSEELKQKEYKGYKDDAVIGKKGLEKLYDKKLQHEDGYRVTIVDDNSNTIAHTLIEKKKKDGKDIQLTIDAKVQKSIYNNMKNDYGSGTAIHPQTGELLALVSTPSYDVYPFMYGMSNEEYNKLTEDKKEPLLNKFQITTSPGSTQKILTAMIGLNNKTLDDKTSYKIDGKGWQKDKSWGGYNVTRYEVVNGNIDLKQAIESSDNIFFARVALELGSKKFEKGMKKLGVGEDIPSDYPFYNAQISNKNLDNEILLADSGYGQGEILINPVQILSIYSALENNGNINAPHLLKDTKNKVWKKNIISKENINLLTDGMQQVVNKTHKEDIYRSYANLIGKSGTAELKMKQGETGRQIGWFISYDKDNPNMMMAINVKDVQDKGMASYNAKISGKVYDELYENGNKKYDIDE

Staphylococcus aureus [3] = test: Inhibitory activity against methicillin-sensitive staphylococcus aureus(MSSA); type: functional
Staphylococcus aureus [4] = test: Inhibitory activity against methicillin-resistant staphylococcus aureus(MRSA); type: functional
Sus scrofa = species: Sus scrofa; test: (§1) Susceptibility to DHP-I (swine kidney enzyme); type: tissue-based
Enterococcus [5] = test: Inhibitory activity against enterococcus evaluated manually; type: functional
Bacteria [6] = test: Inhibitory activity against gram negative bacteria evaluated manually; type: functional
Staphylococcus [7] = test: Inhibitory activity against methicillin-resistant coagulase negative staphylococci (MRCNS) evaluated by computational method; type: functional
Staphylococcus [8] = test: (§2) Inhibitory activity against methicillin-resistant coagulase negative staphylococci (MRCNS) evaluated manually; type: functional
Staphylococcus aureus [9] = test: Inhibitory activity against methicillin-sensitive staphylococcus aureus(MSSA) evaluated by computational method; type: functional
Staphylococcus aureus [10] = test: Inhibitory activity against methicillin-sensitive staphylococcus aureus(MSSA) evaluated manually; type: functional
Staphylococcus aureus [11] = test: Inhibitory activity against methicillin-resistant staphylococcus aureus(MRSA) evaluated manually; type: functional
Staphylococcus aureus [12] = test: Inhibitory activity against methicillin-resistant staphylococcus aureus(MRSA) evaluated by computational method; type: functional
[13] = molecular target: T2, Dipeptidase 1 (Sus scrofa) (UniProt P22412); test: as §1; type: tissue-based
T2 sequence (whole entry): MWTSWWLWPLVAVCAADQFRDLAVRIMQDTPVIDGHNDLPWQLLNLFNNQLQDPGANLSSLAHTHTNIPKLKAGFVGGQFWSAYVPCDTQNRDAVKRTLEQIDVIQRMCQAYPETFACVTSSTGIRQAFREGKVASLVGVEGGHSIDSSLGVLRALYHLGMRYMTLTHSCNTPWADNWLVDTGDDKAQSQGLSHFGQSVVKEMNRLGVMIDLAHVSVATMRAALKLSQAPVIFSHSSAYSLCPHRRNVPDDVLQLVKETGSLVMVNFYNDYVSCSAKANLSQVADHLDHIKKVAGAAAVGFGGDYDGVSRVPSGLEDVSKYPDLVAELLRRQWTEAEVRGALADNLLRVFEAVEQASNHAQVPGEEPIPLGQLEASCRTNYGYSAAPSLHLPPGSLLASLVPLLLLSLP

Staphylococcus sp. = test: as §2; type: functional

| Compound | MIC (Enterococcus [1]) | MIC (Bacteria [2]) | pIC50 (MecA) | MIC (Staphylococcus aureus [3]) | MIC (Staphylococcus aureus [4]) | Susceptibility (Sus scrofa) | MIC (Enterococcus [5]) | MIC (Bacteria [6]) | MIC (Staphylococcus [7]) | MIC (Staphylococcus [8]) | MIC (Staphylococcus aureus [9]) | MIC (Staphylococcus aureus [10]) | MIC (Staphylococcus aureus [11]) | MIC (Staphylococcus aureus [12]) | Susceptibility [13] | MIC (Staphylococcus sp.) |
| --- | --- | --- | --- | --- | --- | --- | --- | --- | --- | --- | --- | --- | --- | --- | --- | --- |
| C[C@@H](O)[C@H]1C(=O)N2C(C(=O)[O-])=C(Sc3nc4ccccc4o3)[C@H](C)[C@H]12.[Na+] | 8.9 µg/mL | 27.8 µg/mL | 3.95 | 0.23 µg/mL | 12.1 µg/mL | – | – | – | – | – | – | – | – | – | – | – |
| C[C@@H](O)[C@H]1C(=O)N2C(C(=O)O)=C(SCCNC=N)C[C@H]12 [IMIPENEM ANHYDROUS] | 1.1 µg/mL (≈ 3.67 µM) | 0.6 µg/mL (≈ 2 µM) | – | – | – | 1 | 1.3 µg/mL (≈ 4.34 µM) | 0.4 µg/mL (≈ 1.34 µM) | 63.7 µg/mL (≈ 213 µM) | > 64 µg/mL | 0.02 µg/mL (≈ 0.0668 µM) | 0.02 µg/mL (≈ 0.0668 µM) | 64 µg/mL (≈ 214 µM) | 35.9 µg/mL (≈ 120 µM) | – | – |
| C[C@@H](O)[C@H]1C(=O)N2C(C(=O)[O-])=C(Sc3nc4ccccc4s3)C[C@H]12.[Na+] | 1.7 µg/mL | 3.7 µg/mL | 5.09 | 0.07 µg/mL | 1.9 µg/mL | – | – | – | – | – | – | – | – | – | 1.7 | – |
| C[C@@H](O)[C@H]1C(=O)N2C(C(=O)[O-])=C(Sc3nc4ccc(Cl)cc4s3)[C@H](C)[C@H]12.[Na+] | 4 µg/mL | 17.6 µg/mL | 5.68 | 0.1 µg/mL | 2.3 µg/mL | – | – | – | – | – | – | – | – | – | – | – |
| C[C@@H](O)[C@H]1C(=O)N2C(C(=O)[O-])=C(Sc3nc4cc(Cl)ccc4s3)C[C@H]12.[Na+] | 0.7 µg/mL | 3.8 µg/mL | 5.42 | 0.02 µg/mL | 1.8 µg/mL | – | – | – | – | – | – | – | – | – | 1.2 | – |
| C[C@@H](O)[C@H]1C(=O)N2C(C(=O)[O-])=C(Sc3nc4cc(CO)ccc4s3)[C@H](C)[C@H]12.[Na+] | 3.8 µg/mL | 8 µg/mL | 5.55 | 0.07 µg/mL | 1 µg/mL | – | – | – | – | – | – | – | – | – | 0.3 | – |
| C[C@@H](O)[C@H]1C(=O)N2C(C(=O)[O-])=C(Sc3nc4ccc(C#N)cc4s3)[C@H](C)[C@H]12.[Na+] | 4.5 µg/mL | 8.8 µg/mL | 5.42 | 0.04 µg/mL | 0.9 µg/mL | – | – | – | – | – | – | – | – | – | 0.1 | – |
| C[C@@H](O)[C@H]1C(=O)N2C(C(=O)[O-])=C(Sc3ccc4ccccc4n3)[C@H](C)[C@H]12.[Na+] | 4.9 µg/mL | 10.1 µg/mL | 4.15 | 0.05 µg/mL | 6.3 µg/mL | – | – | – | – | – | – | – | – | – | – | – |
| C[C@@H](O)[C@H]1C(=O)N2C(C(=O)[O-])=C(Sc3nc4cc(C[n+]5ccn(C)c5)ccc4s3)C[C@H]12 | 1.2 µg/mL (≈ 2.63 µM) | 3.4 µg/mL (≈ 7.45 µM) | 6.06 | – | – | 0.2 | 1 µg/mL (≈ 2.19 µM) | 5.2 µg/mL (≈ 11.4 µM) | 0.8 µg/mL (≈ 1.75 µM) | – | 0.03 µg/mL (≈ 0.0657 µM) | 0.02 µg/mL (≈ 0.0438 µM) | 2 µg/mL (≈ 4.38 µM) | 1 µg/mL (≈ 2.19 µM) | – | 4 µg/mL (≈ 8.76 µM) |
| C[C@@H](O)[C@H]1C(=O)N2C(C(=O)[O-])=C(Sc3nccs3)[C@H](C)[C@H]12.[Na+] | 7.1 µg/mL | 2.5 µg/mL | 4.47 | 0.17 µg/mL | 18.2 µg/mL | – | – | – | – | – | – | – | – | – | 0.4 | – |
| C[C@@H](O)[C@H]1C(=O)N2C(C(=O)[O-])=C(Sc3ncc(-c4ccccc4)s3)[C@H](C)[C@H]12.[Na+] | 8 µg/mL | 16 µg/mL | 3.63 | 0.03 µg/mL | 32 µg/mL | – | – | – | – | – | – | – | – | – | 0.5 | – |
| C[C@@H](O)[C@H]1C(=O)N2C(C(=O)[O-])=C(Sc3nc4ccc([N+](=O)[O-])cc4s3)[C@H](C)[C@H]12.[Na+] | 4.9 µg/mL | 22.4 µg/mL | 5.87 | 0.05 µg/mL | 1.1 µg/mL | – | – | – | – | – | – | – | – | – | 0.2 | – |
| C[C@@H](O)[C@H]1C(=O)N2C(C(=O)[O-])=C(Sc3nc(-c4ccccc4)cs3)C[C@H]12.[Na+] | 2.1 µg/mL | 14 µg/mL | – | 0.03 µg/mL | 11.3 µg/mL | – | – | – | – | – | – | – | – | – | 3.6 | – |
